Laboratory results published in ChEMBL document CHEMBL4177571, “Synthesis and biological evaluation of a new series of cinnamic acid amide derivatives as potent haemostatic agents containing a 2-aminothiazole substructure” (Bioorg Med Chem Lett, 2017).

Assays:
[1] = Thermal stability of the compound at 150 degC by thermogravimetric assay; type: physicochemical
Plasma [2] = assay: Haemostatic activity in human plasma assessed as change in rate of thrombin time at 100 uM after 3 mins by thrombin agent based assay relative to control; type: functional
Plasma [3] = assay: Haemostatic activity in human plasma assessed as change in rate of prothrombin time at 1 uM after 3 mins by thromboplastic agent based assay relative to control; type: functional
Plasma [4] = assay: Haemostatic activity in human plasma assessed as change in rate of activated partial thromboplastin time at 5 uM after 3 mins relative to control; type: functional
Plasma [5] = assay: Haemostatic activity in human plasma assessed as change in rate of activated partial thromboplastin time at 10 uM after 3 mins relative to control; type: functional
Plasma [6] = assay: Haemostatic activity in human plasma assessed as change in rate of prothrombin time at 100 uM after 3 mins by thromboplastic agent based assay relative to control; type: functional
Plasma [7] = assay: Haemostatic activity in human plasma assessed as change in rate of prothrombin time at 50 uM after 3 mins by thromboplastic agent based assay relative to control; type: functional
Plasma [8] = assay: Haemostatic activity in human plasma assessed as change in rate of thrombin time at 5 uM after 3 mins by thrombin agent based assay relative to control; type: functional
Plasma [9] = assay: Haemostatic activity in human plasma assessed as change in rate of activated partial thromboplastin time at 1 uM after 3 mins relative to control; type: functional
Plasma [10] = assay: Haemostatic activity in human plasma assessed as change in rate of activated partial thromboplastin time at 100 uM after 3 mins relative to control; type: functional
Plasma [11] = assay: Inhibition of ADP-induced platelet aggregation in human plasma; type: functional
Plasma [12] = assay: Haemostatic activity in human plasma assessed as change in rate of prothrombin time at 10 uM after 3 mins by thromboplastic agent based assay relative to control; type: functional
Plasma [13] = assay: Haemostatic activity in human plasma assessed as change in rate of thrombin time at 50 uM after 3 mins by thrombin agent based assay relative to control; type: functional
Plasma [14] = assay: Haemostatic activity in human plasma assessed as change in rate of activated partial thromboplastin time at 50 uM after 3 mins relative to control; type: functional
Plasma [15] = assay: Haemostatic activity in human plasma assessed as change in rate of prothrombin time at 5 uM after 3 mins by thromboplastic agent based assay relative to control; type: functional
Plasma [16] = assay: Haemostatic activity in human plasma assessed as change in rate of thrombin time at 10 uM after 3 mins by thrombin agent based assay relative to control; type: functional
Plasma [17] = assay: Haemostatic activity in human plasma assessed as change in rate of thrombin time at 1 uM after 3 mins by thrombin agent based assay relative to control; type: functional

| SMILES | Stability [1] | Activity (Plasma [2]) | Activity (Plasma [3]) | Activity (Plasma [4]) | Activity (Plasma [5]) | Activity (Plasma [6]) | Activity (Plasma [7]) | Activity (Plasma [8]) | Activity (Plasma [9]) | Activity (Plasma [10]) | IC50 (Plasma [11]) | Activity (Plasma [12]) | Activity (Plasma [13]) | Activity (Plasma [14]) | Activity (Plasma [15]) | Activity (Plasma [16]) | Activity (Plasma [17]) |
| --- | --- | --- | --- | --- | --- | --- | --- | --- | --- | --- | --- | --- | --- | --- | --- | --- | --- |
| COc1ccc(/C=C/C(=O)Nc2nccs2)cc1OC | Stable | -14.62% | -1.7% | -6.47% | -1.41% | -2.99% | -1.49% | -16.04% | -0.14% | 1.97% | 54.5 µM | -0.22% | -23.82% | -0.56% | 0.28% | -22.41% | -14.62% |
| CC(=O)Oc1cccc(/C=C/C(=O)Nc2nccs2)c1 | Stable | -21.64% | -0.1% | -6.57% | -10.19% | -0.84% | -0.42% | -7.21% | -4.64% | -8.61% | 35.5 µM | -0.73% | -19.95% | -9.06% | -1.05% | -15.39% | -5.05% |
| COc1cc(/C=C/C(=O)Nc2nccs2)cc(OC)c1OC | Stable | -50.24% | 0.56% | 1.55% | 2.25% | 2.55% | 0.55% | -22.17% | 0.56% | 1.69% | 18.1 µM | 3.22% | -21.7% | 1.96% | -0.95% | -10.14% | -29.01% |
| COc1ccc(/C=C/C(=O)Nc2nccs2)cc1 | Stable | -16.95% | -1.51% | -2.7% | 0.14% | -6.75% | -0.75% | -7.51% | -1.28% | -0.71% | 73.7 µM | 0% | -13.8% | 0.28% | -2.27% | -8.23% | -6.54% |
| CC(=O)Oc1ccccc1/C=C/C(=O)Nc1nccs1 | Stable | -21.88% | -1.68% | -9.51% | -8.61% | -1.78% | -2.2% | -13.46% | -5.55% | -6.12% | 1.87 µM | -4.62% | -26.2% | -8.15% | -3.25% | -21.39% | -2.4% |
| CC(=O)Oc1ccc(/C=C/C(=O)Nc2nccs2)cc1OC(C)=O | Stable | -15.63% | -4.3% | -6% | -2.94% | -3.88% | -1.68% | -30.77% | -2.94% | 0% | 75.6 µM | -1.36% | -27.89% | -2.04% | -4.09% | -28.13% | -13.94% |
| O=C(/C=C/c1ccccc1)Nc1nccs1 | Stable | -9.69% | -5.69% | -5.81% | -9.95% | -3.7% | -4.4% | -10.79% | -4.78% | -2.71% | 36.6 µM | -5.59% | -13.66% | -6.72% | -7.09% | -11.23% | -7.93% |
| Nc1nccs1 [AMINOTHIAZOLE] |  | -3.53% | -6.63% | -2% | -0.43% | -5.43% | -5.17% | -5.06% | -3.71% | 2.53% | 202 µM | -2.84% | -5.41% | 0% | -4.91% | -6.47% | -3.53% |
| O=C(CCc1ccccc1)Nc1nccs1 | Stable | -7.93% | -0.56% | -2.42% | -1.85% | 0% | -2.81% | -4.6% | 1% | 0.28% | 45.1 µM | -3.19% | -7.02% | -1.56% | -2.44% | -5.33% | -3.15% |
| O=S(=O)(O)c1cc(O)ccc1O [ETHAMSYLATE] |  |  |  |  |  |  |  |  |  |  | 46.2 µM |  |  |  |  |  |  |
| CC(=O)Oc1ccc(/C=C/C(=O)Nc2nccs2)cc1 | Stable | -6.39% | -3.2% | -3.1% | -3.88% | 1.2% | -4.3% | -14.54% | -1.68% | -2.45% | 58.1 µM | -5.29% | -21.15% | -2.71% | -4.4% | -22.03% | -11.45% |
| COc1cc(/C=C/C(=O)Nc2nccs2)ccc1OC(C)=O | Stable | -11.06% | -1.98% | -2.57% | -3.42% | -7.32% | -5.77% | -7.88% | -1.14% | -1.85% | 25.5 µM | -4.39% | -12.35% | -6.28% | -2.24% | -13.06% | -5.76% |
